Experimental data published in patent US20230113802A1, “COMPOSITION AND METHOD TO PREPARE LONG-ACTING INJECTABLE SUSPENSION CONTAINING MULTIPLE CANCER DRUGS” (University of Washington, priority 2020, published 2023).
Values joined by “and” are separate entries in the source; they are usually repeats but may differ in a detail not shown here. Identical values can stand only once.

What was measured:
[1] = Estimating the maximum dissociated fraction of G and T in vivo (Eq. 1, Eq. 2); set-up: species or system BALB/c mice; conditions: for maximum dissociated fraction (fdiss. max), Eq. 1: from plasma AUCs of DcNP and CrEL
From the text: To estimate a maximum dissociated fraction (fdiss. max) of GT from DcNPs in vivo, a non-compartmental approach based on the plasma AUCs of equi-molar injections of DcNP and CrEL formulations was first utilized: […]
In Eq. 1, it is assumed that systemic clearance of G or T administered as DcNPs only occurs after drug dissociates from the particles, and dissociated drug has the same clearance pathways as the free drug control (CrEL). This non compartmental approach also assumes that drug clearance occurs solely in the central compartment. For the two drugs of interest, T is mainly metabolized in the liver by CYP3A4 and CYP2C8 but G is metabolized by ubiquitous cytidine deaminase (CDA). To understand the impact of the ubiquitous metabolism of G on its pharmacokinetic profile, the plasma concentration of the primary metabolite of G, dFdU, was used as a biomarker for dissociated drug. […] The equation below then provides an estimate of the fraction of the G dose metabolized to dFdU. If the calculated fraction metabolized (fdiss.G→dFdU) from Eq. 2 equals the fdiss. max from Eq. 1, it can be surmised that once G is released from DcNPs at all locations in the body it exchanges readily with the circulating G and subsequently undergoes metabolism (i.e., metabolism of all dissociated drug occurs in the central compartment). However, if some or all of the drug released from DcNPs in peripheral tissue is immediately metabolized to dFdU without exchanging with G in circulation, the fdiss.G→dFdU estimates from Eq. 2 would be expected to exceed the fdiss. max from Eq. 1 (i.e., dissociated drug is metabolized in both the central and peripheral compartments).
G AUC0→∞,CrEL is the plasma AUC of G given in free drug form. G AUC0→∞,DcNP is the total AUCs of associated and dissociated G given in DcNP form. dFdU AUC0→∞, CrEL is the AUC of dFdU formed after administration of free G. dFdU AUC0→∞,DcNP is the AUC of dFdU after dosing G in DcNP, which reflects the amount of dissociated G released from DcNPs and available for metabolic conversion. fdiss.G→dFdU represents the fraction of DcNP-dose that is released as free drug and available for conversion to dFdU by CDA.
The assumptions underlying Eq. 2 are as follows: [1] Dissociated (free) G, but not associated G, is readily available for metabolism by CDA. Dissociated G is rapidly and extensively metabolized to dFdU by CDA. […] A detailed pharmacokinetic model for the associated and dissociated species will be presented next to simulate the in vivo association of both drugs.

[2] = Association efficiency of venetoclax and zanubrutinib with DcNP's by dialysis; type: physicochemical
Description: 85.4 mg DSPC, 33.6 mg DSPE-mPEG2000, 9.6 mg ABT-199, and 9.6 mg BGB-3111 were dissolved in 4 mL pre-warmed 70° C. tert-butyl alcohol. The solution was thoroughly mixed, lyophilized over 24 hrs, and reconstituted in 0.9% NaCl, 20 mM NaHCO3 buffer with trace TWEEN® 20. The resulting drug-combination, stabilized by lipid excipients and referred to as drug combination nanoparticle or DcNP's, were then filtered through an Acrodisc® CR syringe filter (0.2 μm PTFE Membrane, HPLC certified) and diluted with buffer solution to the desired concentration. Particle size was quantified using a NICOMP 380 ZLS (Zeta Potential/Particle Sizer). The extent of ABT-199 and BGB-3111 association with the DcNP particles in solution was analyzed via dialysis (6,000-8,000 molecular weight cutoff) under sink conditions; sink condition was achieved by dialyzing 200 μl of DcNP suspension against 200 mL buffer solution (1,000-fold volume change) for 4 hrs. The drug association efficiency (AE %) was determined by comparing the pre- and post-dialysis drug concentration ratios of each drug. Drug concentration was determined by the extraction drug in suspension and analyzed based on a LC-MS/MS assay as described below.
Following initial rehydration and without any sonication, particle size of the DcNP's with and without TWEEN20 was measured using the Zetasizer (FIG. 10). […] Without Tween20, DcNP size was primarily 39 nm in diameter (92%) with less than 8% of particles measuring 870 nm in diameter (FIG. 10). Particle size was determined via dynamic light scattering, and association efficiency (FIG. 11) is a normalized mass/mass ratio calculated by comparing amount of drug remaining associated with DcNP's compared to the overall amount of drug used to create the particles.

[3] = system: HL-60 cells; assay: Leukemic cell uptake of free versus DcNP-associated drug, HL-60; type: cell-based, human; conditions: up to 4 hours
Description: (§1) FIGS. 13A-13D are a series of graphs showing the intracellular drug concentrations following incubation with free or DcNP-bound drug. Three leukemic cell lines were incubated with either free or DcNP-bound drug over four hours, and intracellular drug concentration was measured via LC-MS/MS. Both free drugs show relatively little drug uptake compared to the DcNP formulation. Free drug concentrations are roughly a quarter of the DcNP drug concentrations.
(§2) To quantify drug concentrations (both DcNP-bound and free drug), an extraction protocol was established to quantify venetoclax and zanubrutinib. In short, drug was solubilized by diluting the sample into ethyl acetate, liberating it from either the DcNP lipid matrix, mouse plasma, or both. Following centrifugation to remove organic material, the samples were dried with nitrogen gas, reconstituted in acetonitrile, and loaded onto an LC-MS/MS. Drug concentrations were quantified by comparing sample data with standard curves prepared from untreated mouse plasma spiked with known amounts of drug.
(§3) Separations were carried out on a Synergi column (100×2.0 mm) (Phenomenex, Torrance, USA). A C8 guard column (4.0×2.0 mm) was used (Phenomenex, USA). The separations were done under ambient temperature, and the flow rate was set to 0.55 ml/min. The mobile phase for the separations consisted of buffers A (water with 20 mM ammonium acetate) and B (acetonitrile). The single mobile phase ran for five minutes, and it consisted of 25% buffer A and 75% buffer B.
(§4) HL-60 cells were cultured, counted, and aliquoted into multiple 1.5 mL Eppendorf tubes. A free drug solution of ABT-199 and BGB-3111 (1:1 w/w) was added to half of the tubes, while a DcNP solution of identical drug concentrations was added to the second half of tubes. The cells in the tubes were then allowed to incubate normally. At preselected time points, one incubation tube from each group was removed from the incubator, and the cells inside were washed twice with media to remove external drug and DcNP's. Cells were then lysed with acetonitrile, and drug concentrations were quantified according to the aforementioned extraction and LC-MS/MS protocol.

[4] = system: K-562 cells; assay: Leukemic cell uptake of free versus DcNP-associated drug, K-562; type: cell-based, human
Description: as §1, §2, §3, §4

[5] = system: MOLT-4 cells; assay: Leukemic cell uptake of free versus DcNP-associated drug, MOLT-4; type: cell-based, human
Description: as §1, §2, §3, §4

[6] = HL-60, incubation with free drug (1:1 w/w)
[7] = K-562, incubation with free drug
[8] = MOLT-4, incubation with free drug

| peak intracellular drug concentration ([3]; HL-60, incubation with DcNP's) | peak intracellular drug concentration [3, 6] | peak intracellular drug concentration ([4]; K-562, incubation with DcNP's) | peak intracellular drug concentration [4, 7] | peak intracellular drug concentration ([5]; MOLT-4, incubation with DcNP's) | peak intracellular drug concentration [5, 8] | Structure (SMILES) | fraction of dissociated G accessible for metabolism (fdiss.G→dFdU), Eq. 2 ([1]; GT DcNP IV) | in vivo association to DcNPs per Eq. 1 ([1]; GT DcNP IV) | maximum dissociated fraction (fdiss. max), Eq. 1 ([1]; GT DcNP IV) | G in DcNP dosage form not accessible for dFdU conversion / remaining associated to DcNPs in vivo ([1]; after IV GT-DcNP administration, listed as G) | AE % (association efficiency with the DcNP lipid platform) ([2]; with TWEEN20, day 1) | AE % (association efficiency with the DcNP lipid platform) ([2]; with TWEEN20, day 70) | AE % (association efficiency with the DcNP lipid platform) ([2]; without TWEEN20, day 1) | AE % (association efficiency with the DcNP lipid platform) ([2]; without TWEEN20, day 70) |
| --- | --- | --- | --- | --- | --- | --- | --- | --- | --- | --- | --- | --- | --- | --- |
| – | – | – | – | – | – | Nc1ccn([C@@H]2O[C@H](CO)[C@@H](O)C2(F)F)c(=O)n1 [Gemcitabine, 4-amino-1-[(2R,4R,5R)-3,3-difluoro-4-hydroxy-5-(hydroxymethyl)oxolan-2-yl]pyrimidin-2-one] | 8% | > 98% | 1.6% | 92% and > 92% | – | – | – | – |
| – | – | – | – | – | – | CC(=O)O[C@H]1C(=O)[C@@]2(C)[C@H]([C@H](OC(=O)c3ccccc3)[C@]3(O)C[C@H](OC(=O)[C@H](O)[C@@H](NC(=O)c4ccccc4)c4ccccc4)C(C)=C1C3(C)C)[C@]1(OC(C)=O)CO[C@@H]1C[C@@H]2O [Paclitaxel, [(1S,2S,3R,4S,7R,9S,10S,12R,15S)-4,12-diacetyloxy-15-[(2R,3S)-3-benzamido-2-hydroxy-3-phenylpropanoyl]oxy-1,9-dihydroxy-10,14,17,17-tetramethyl-11-oxo-6-oxatetracyclo[11.3.1.0^3,10.0^4,7]heptadec-13-en-2-yl] benzoate] | – | > 75% | 26.6% | – | – | – | – | – |
| 674 ng/million cells | 192 ng/million cells | 647 ng/million cells | 192 ng/million cells | 718 ng/million cells | 176 ng/million cells | CC1(C)CCC(CN2CCN(c3ccc(C(=O)NS(=O)(=O)c4ccc(NCC5CCOCC5)c([N+](=O)[O-])c4)c(Oc4cnc5[nH]ccc5c4)c3)CC2)=C(c2ccc(Cl)cc2)C1 [Venetoclax, 4-[4-[[2-(4-chlorophenyl)-4,4-dimethylcyclohexen-1-yl]methyl]piperazin-1-yl]-N-[3-nitro-4-(oxan-4-ylmethylamino)phenyl]sulfonyl-2-(1H-pyrrolo[2,3-b]pyridin-5-yloxy)benzamide] | – | – | – | – | 100% | 99.91% | 100% | 100% |
| 256 ng/million cells | 69 ng/million cells | 647 ng/million cells | 109 ng/million cells | 208 ng/million cells | 42 ng/million cells | C=CC(=O)N1CCC([C@@H]2CCNc3c(C(N)=O)c(-c4ccc(Oc5ccccc5)cc4)nn32)CC1 [Zanubrutinib, (7S)-2-(4-phenoxyphenyl)-7-(1-prop-2-enoylpiperidin-4-yl)-4,5,6,7-tetrahydropyrazolo[1,5-a]pyrimidine-3-carboxamide] | – | – | – | – | 98.52% | 93.05% | 99.99% | 95.50% |
